The source of these data is ChEMBL document CHEMBL1133749, “Water-soluble, core-modified porphyrins as novel, longer-wavelength-absorbing sensitizers for photodynamic therapy” (J Med Chem, 2000).

The test system of one series is Murine T-cell line. As to the kind of experiment: Compound at >50 ug/mL was tested for photoactivity against murine T-cell line; No significant photoactivity. The series is classed as functional, cell-based. Conditions: Mus musculus.
For series [1], the system named is Mus musculus. Nature of the series: Tested in vivo for times to mm**3 tumor volume against BALB/c mice bearing COLO-26 tumors at a dose 10 mg/Kg. The series is classed as functional.
The test system of series [2] is Mus musculus. As to the kind of experiment: Tested in vivo for times to mm**3 tumor volume against BALB/c mice bearing COLO-26 tumors at a dose 3.25 mg/Kg. The series is classed as functional.
Series [3] deals with Colon 26. Nature of the series: Lethal dose required for photodynamic therapy against COLO-26 cells in culture. The series is classed as toxicity, cell-based.
Series [4] relates to Colon 26. As to the kind of experiment: Photodynamic therapy against COLO-26 cells in culture. The series is classed as cell-based. Particulars: Mus musculus, Colon 26, light or radiation study; read-out: LD50 (the source's name).

Regarding `O=S(=O)([O-])c1ccc(-c2c3nc(c(-c4ccc(S(=O)(=O)[O-])cc4)c4ccc(s4)c(-c4ccc(S(=O)(=O)[O-])cc4)c4nc(c(-c5ccc(S(=O)(=O)[O-])cc5)c5ccc2s5)C=C4)C=C3)cc1.[Na+].[Na+].[Na+].[Na+]`, in the series with Murine T-cell line, the NS result is “No significant photoactivity”. For the same compound, the Time in the series with Mus musculus [1] was found to be 276 h; in the series with Mus musculus [2], 198 h. Besides, the CC50 in the series on Colon 26 [3] (Mus musculus, Colon 26, light or radiation study, read-out: LD50 (the source's name)) is less than 25 µg/mL. Also, in the series with Colon 26 [3] (mouse), the LD90 is more than 50 µg/mL.

With `O=S(=O)([O-])c1ccc(-c2c3nc(c(-c4ccc(S(=O)(=O)[O-])cc4)c4ccc([nH]4)c(-c4ccc(S(=O)(=O)[O-])cc4)c4ccc([nH]4)c(-c4ccc(S(=O)(=O)[O-])cc4)c4nc2C=C4)C=C3)cc1.[Na+].[Na+].[Na+].[Na+]`, in the series with Murine T-cell line, the NS result was “No significant photoactivity”. Moreover, the CC50 with Colon 26 [4] is more than 100 µg/mL.
